Read-outs that look alike come from different tables or passages of the source.
Key:
[1] = test system: IL-2 stimulated pSTAT5 in Tall-1 T cells; assay: Cellular JAK3 potency assay: inhibition of IL-2 stimulated pSTAT5 in Tall-1 T cells; format: cell-based, human; settings: for IC50: Homo sapiens, read-out: Tall-1 (pIC50) (converted)
Experimental: The potency of test compounds for inhibition of interleukin-2 (IL-2) stimulated STAT5 phosphorylation was measured in the Tall-1 human T cell line (DSMZ) using AlphaLisa. Because IL-2 signals through JAK3, this assay provides a measure of JAK3 cellular potency.
Compounds were serially diluted in DMSO and dispensed acoustically to empty wells. Assay media (phenol red-free DMEM (Life Technologies) supplemented with 10% FBS (ATCC)) was dispensed (4 μL/well) and plates shaken at 900 rpm for 10 mins. Cells were seeded at 45,000 cells/well in assay media (4 μL/well), and incubated at 37° C., 5% CO2 for 1 hour, followed by the addition of IL-2 (R&D Systems; final concentration 300 ng/ml) in pre-warmed assay media (4 μL) for 30 minutes. After cytokine stimulation, cells were lysed with 6 ul of 3× AlphaLisa Lysis Buffer (PerkinElmer) containing 1× PhosStop and Complete tablets (Roche). The lysate was shaken at 900 rpm for 10 minutes at room temperature (RT). Phosphorylated STAT5 was measured via the pSTAT5 AlphaLisa kit (PerkinElmer). Freshly prepared acceptor bead mixture was dispensed onto lysate (5 μL) under green filtered <100 lux light. Plates were shaken at 900 rpm for 2 mins, briefly spun down, and incubated for 2 hrs at RT in the dark. Donor beads were dispensed (5 μL) under green filtered <100 lux light. Plates were shaken at 900 rpm for 2 minutes, briefly spun down, and incubated overnight at RT in the dark.
To determine the inhibitory potency of test compounds in response to IL-2, the average emission intensity of beads bound to pSTAT5 was measured in a human T cell line. IC50 values were determined from analysis of the inhibition curves of signal intensity versus compound concentration. Data are expressed as pIC50 (negative decadic logarithm IC50) values (mean±standard deviation).

[2] = biological target: T1, JAK1 (Homo sapiens, UniProt P23458); assay: Biochemical JAK1 kinase assay (LanthaScreen); settings: for Ki: read-out: JAK 1 (pKi) (converted)
T1 construct: GST; purchased Life Technologies
Experimental: (§1) A panel of four LanthaScreen JAK biochemical assays (JAK1, 2, 3 and Tyk2) were carried in a common kinase reaction buffer (50 mM HEPES, pH 7.5, 0.01% Brij-35, 10 mM MgCl2, and 1 mM EGTA). Recombinant GST-tagged JAK enzymes and a GFP-tagged STAT1 peptide substrate were obtained from Life Technologies.
(§2) Serially or discretely diluted compounds were pre-incubated with each of the four JAK enzymes and the substrate in white 384-well microplates (Corning) at ambient temperature for 1 h. ATP was subsequently added to initiate the kinase reactions in 10 μL total volume, with 1% DMSO. […] Kinase reactions were allowed to proceed for 1 hour at ambient temperature before a 10 μL preparation of EDTA (10 mM final concentration) and Tb-anti-pSTAT1 (pTyr701) antibody (Life Technologies, 2 nM final concentration) in TR-FRET dilution buffer (Life Technologies) was added. The plates were allowed to incubate at ambient temperature for 1 h before being read on the EnVision reader (Perkin Elmer). Emission ratio signals (520 nm/495 nm) were recorded and utilized to calculate the percent inhibition values based on DMSO and background controls.
(§3) For dose-response analysis, percent inhibition data were plotted vs. compound concentrations, and IC50 values were determined from a 4-parameter robust fit model with the Prism software (GraphPad Software). Results were expressed as pIC50 (negative logarithm of IC50) and subsequently converted to pKi (negative logarithm of dissociation constant, Ki) using the Cheng-Prusoff equation.

[3] = biological target: T2, JAK3 (Homo sapiens, UniProt P52333); assay: Biochemical JAK3 kinase assay (LanthaScreen); set-up: GST; purchased Life Technologies; settings: for Ki: read-out: JAK 3 (pKi) (converted)
T2 sequence (P52333 1-1124): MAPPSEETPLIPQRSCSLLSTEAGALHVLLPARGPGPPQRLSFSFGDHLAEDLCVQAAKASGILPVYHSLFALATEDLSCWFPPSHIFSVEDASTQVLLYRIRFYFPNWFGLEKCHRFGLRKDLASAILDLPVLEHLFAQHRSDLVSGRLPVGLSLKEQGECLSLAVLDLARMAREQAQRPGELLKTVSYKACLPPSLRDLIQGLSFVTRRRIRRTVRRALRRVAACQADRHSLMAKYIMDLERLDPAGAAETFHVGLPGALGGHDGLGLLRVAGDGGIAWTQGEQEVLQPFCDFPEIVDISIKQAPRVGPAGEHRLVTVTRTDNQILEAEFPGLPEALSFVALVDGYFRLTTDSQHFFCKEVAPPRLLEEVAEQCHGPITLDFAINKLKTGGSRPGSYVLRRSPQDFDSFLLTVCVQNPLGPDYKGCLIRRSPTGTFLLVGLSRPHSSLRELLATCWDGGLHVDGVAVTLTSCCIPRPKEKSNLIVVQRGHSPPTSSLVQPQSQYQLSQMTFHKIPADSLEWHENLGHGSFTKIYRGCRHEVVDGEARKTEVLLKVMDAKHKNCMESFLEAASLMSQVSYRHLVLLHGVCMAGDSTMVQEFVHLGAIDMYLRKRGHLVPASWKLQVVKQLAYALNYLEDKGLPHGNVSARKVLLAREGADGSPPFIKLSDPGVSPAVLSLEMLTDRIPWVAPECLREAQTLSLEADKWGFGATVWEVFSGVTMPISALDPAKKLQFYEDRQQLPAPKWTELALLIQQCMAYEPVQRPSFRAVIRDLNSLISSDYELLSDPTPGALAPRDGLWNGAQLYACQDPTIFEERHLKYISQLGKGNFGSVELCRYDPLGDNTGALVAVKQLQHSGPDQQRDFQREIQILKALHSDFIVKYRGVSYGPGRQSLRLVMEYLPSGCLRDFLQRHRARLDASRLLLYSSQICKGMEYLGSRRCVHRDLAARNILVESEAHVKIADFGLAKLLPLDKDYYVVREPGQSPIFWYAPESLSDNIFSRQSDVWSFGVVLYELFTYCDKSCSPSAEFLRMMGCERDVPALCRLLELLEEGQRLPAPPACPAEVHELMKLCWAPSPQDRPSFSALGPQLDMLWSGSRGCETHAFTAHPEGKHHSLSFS
Experimental: as §1, §2, §3

[4] = IL-2 stimulated pSTAT5 in Tall-1 T cells
[5] = selectivity: difference of pKi JAK3 and pKi JAK1
[6] = TALL-1, IL-2 stimulated pSTAT5, Tall-1 T cells
[7] = selectivity JAK3 over JAK1, difference of pKi
[8] = TALL-1, IL-2 stimulated pSTAT5 in Tall-1 T cells
[9] = IL-2 stimulated pSTAT5, Tall-1 T cells

T1 sequence (P23458 whole entry): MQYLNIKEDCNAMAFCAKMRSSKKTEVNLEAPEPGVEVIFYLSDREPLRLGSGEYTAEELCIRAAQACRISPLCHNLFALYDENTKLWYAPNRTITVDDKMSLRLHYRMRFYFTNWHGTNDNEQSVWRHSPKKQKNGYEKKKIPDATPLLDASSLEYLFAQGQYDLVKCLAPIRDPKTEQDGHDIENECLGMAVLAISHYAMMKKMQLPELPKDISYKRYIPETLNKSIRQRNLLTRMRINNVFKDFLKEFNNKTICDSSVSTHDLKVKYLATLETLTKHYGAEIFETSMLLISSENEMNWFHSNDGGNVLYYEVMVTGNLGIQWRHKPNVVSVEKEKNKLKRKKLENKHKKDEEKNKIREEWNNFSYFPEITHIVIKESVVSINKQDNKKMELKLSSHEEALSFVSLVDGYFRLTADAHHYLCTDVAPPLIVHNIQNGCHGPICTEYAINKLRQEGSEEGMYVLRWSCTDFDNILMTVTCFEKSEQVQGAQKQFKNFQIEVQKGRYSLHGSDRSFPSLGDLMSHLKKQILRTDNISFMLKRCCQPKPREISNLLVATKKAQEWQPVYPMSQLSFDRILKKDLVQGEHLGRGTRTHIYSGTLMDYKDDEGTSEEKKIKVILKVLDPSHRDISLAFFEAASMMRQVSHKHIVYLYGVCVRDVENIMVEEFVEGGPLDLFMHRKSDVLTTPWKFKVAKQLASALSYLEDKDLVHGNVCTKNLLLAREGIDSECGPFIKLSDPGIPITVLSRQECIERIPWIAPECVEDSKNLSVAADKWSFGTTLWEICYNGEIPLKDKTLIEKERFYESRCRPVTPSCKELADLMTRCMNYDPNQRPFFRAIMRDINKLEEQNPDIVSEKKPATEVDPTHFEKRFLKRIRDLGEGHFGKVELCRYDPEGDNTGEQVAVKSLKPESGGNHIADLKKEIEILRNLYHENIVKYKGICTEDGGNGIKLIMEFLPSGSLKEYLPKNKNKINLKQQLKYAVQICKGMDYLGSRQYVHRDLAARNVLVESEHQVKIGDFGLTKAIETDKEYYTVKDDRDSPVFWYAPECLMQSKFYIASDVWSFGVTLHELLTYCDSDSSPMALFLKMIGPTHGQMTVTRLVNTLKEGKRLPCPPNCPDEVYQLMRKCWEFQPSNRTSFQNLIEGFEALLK

Row | Structure (SMILES) | Tall-1 (pIC50) [1, 4] | JAK 1 (pKi) [2] | JAK 3 (pKi) [3] | JAK3 (pKi)-JAK1 (pKi) [3, 5] | IC50 [1, 6] | Ki [2] | Ki [3] | JAK3 (pKi)-JAK1 (pKi) [3, 7] | IC50 [1, 8] | Tall-1 (pIC50) [1, 9]
1 | C=CC(=O)N1CC(C(C)(C)Oc2cc(-c3ccc(O)c(Cl)c3)cc3[nH]ncc23)C1 [Compound 3-26] | B (a pIC50 value between 6.7 (included) and 7.5 (IC50 between 200 nM and 32 nM)) | E (a pKi value of 7 or below (Ki of 100 nM or above)) | B (a pKi value between 9 and 10 (Ki between 1 nM and 0.1 nM)) | A (a value of 3 or above) | – | – | – | – | – | –
2 | CN(C)C/C=C/C(=O)N1CC2(CC(Oc3cc(-c4ccc(O)cc4)cc4[nH]ncc34)C2)C1 [Compound 12-52] | – | – | – | – | 0.2 to 1 µM | 0.01 to 0.1 µM | 0.0001 to 0.001 µM | B (a value of 2.3 to 3) | – | –
3 | C=CC(=O)N1CC[C@H](Oc2cc(-c3ccc(O)c(F)c3)cc3[nH]nc(C)c23)C1 [Compound 1-23] | – | – | – | B (a value of 2.3 to 3) | – | 0.01 to 0.1 µM | 0.0001 to 0.001 µM | – | < 0.0316 µM | –
4 | CN(C)C/C=C/C(=O)N1CC[C@H](Oc2nc(-c3ccc(O)cc3)cc3[nH]ncc23)C1 [Compound 1-7] | – | – | – | B (a value of 2.3 to 3) | – | > 0.1 µM | 0.0001 to 0.001 µM | – | 0.2 to 1 µM | –
5 | C=CC(=O)N1CC[C@H](Oc2cc(-c3ccc(O)cc3)cc3[nH]nc(SC)c23)C1 [Compound 1-39] | – | – | – | A (a value of 3 or above) | – | > 0.1 µM | 0.0001 to 0.001 µM | – | 0.0316 to 0.2 µM | –
6 | CN(C)C/C=C/C(=O)N1CCC(Oc2cc(-c3ccc(O)cc3)cc3[nH]ncc23)CC1 [Compound 6-1] | – | – | – | – | 0.0316 to 0.2 µM | 0.01 to 0.1 µM | < 0.0001 µM | B (a value of 2.3 to 3) | – | –
7 | C=CC(=O)N1CC(CNc2cc(-c3ccc(O)cc3)cc3[nH]ncc23)C1 [Compound 4-3] | B (a pIC50 value between 6.7 (included) and 7.5 (IC50 between 200 nM and 32 nM)) | E (a pKi value of 7 or below (Ki of 100 nM or above)) | B (a pKi value between 9 and 10 (Ki between 1 nM and 0.1 nM)) | B (a value of 2.3 to 3) | – | – | – | – | – | –
8 | C=CC(=O)N1CC[C@H](Oc2cc(-c3ccc(O)cc3)cc3[nH]nc(C(F)(F)F)c23)C1 [Compound 1-43] | – | – | – | A (a value of 3 or above) | – | > 0.1 µM | < 0.0001 µM | – | < 0.0316 µM | –
9 | CN(C)C/C=C/C(=O)N1CCC[C@H](Sc2cc(-c3ccc(O)cc3)cc3[nH]ncc23)C1 [Compound 12-7] | – | – | – | – | 0.2 to 1 µM | 0.01 to 0.1 µM | 0.0001 to 0.001 µM | C (a value of 1.8 to 2.3) | – | –
10 | C=CC(=O)N1CC[C@@H]1COc1cc(-c2ccc(O)cc2)cc2[nH]ncc12 [Compound 12-23] | – | – | – | – | 0.0316 to 0.2 µM | > 0.1 µM | 0.0001 to 0.001 µM | A (a value of 3 or above) | – | –
11 | C=CC(=O)N1CC[C@H](Oc2nc(-c3ccc(O)cc3)nc3[nH]nc(C(F)F)c23)C1 [Compound 1-25] | – | – | – | A (a value of 3 or above) | – | > 0.1 µM | 0.0001 to 0.001 µM | – | 0.0316 to 0.2 µM | –
12 | CN(C)C/C=C/C(=O)N1CC(CN(C)c2nc(-c3ccc(O)cc3)cc3[nH]ncc23)C1 [Compound 4-8] | B (a pIC50 value between 6.7 (included) and 7.5 (IC50 between 200 nM and 32 nM)) | E (a pKi value of 7 or below (Ki of 100 nM or above)) | B (a pKi value between 9 and 10 (Ki between 1 nM and 0.1 nM)) | B (a value of 2.3 to 3) | – | – | – | – | – | –
13 | C=C(CN(C)C)C(=O)N1CC[C@H](Oc2cc(-c3ccc(O)cc3)cc3[nH]ncc23)C1 [Compound 16, (S)-2-((dimethylamino)methyl)-1-(3-((6-(4-hydroxyphenyl)-1H-indazol-4-yl)oxy)pyrrolidin-1-yl)prop-2-en-1-one] | – | – | – | A (a value of 3 or above) | – | > 0.1 µM | 0.0001 to 0.001 µM | – | 0.0316 to 0.2 µM | –
14 | CN(C)C/C=C/C(=O)N1CC[C@H](COc2nc(-c3ccc(O)c(F)c3)cc3[nH]ncc23)C1 [Compound 2-13] | C (a pIC50 value between 6 and 6.7 (IC50 between 1 μM and 200 nM)) | E (a pKi value of 7 or below (Ki of 100 nM or above)) | B (a pKi value between 9 and 10 (Ki between 1 nM and 0.1 nM)) | B (a value of 2.3 to 3) | – | – | – | – | – | –
15 | C=CC(=O)N1C2CCC1CC(Oc1cc(-c3ccc(O)c(F)c3)cc3[nH]ncc13)C2 (stereo not shown) [Compound 10-6] | – | D (a pKi value between 7 and 8 (Ki between 100 nM and 10 nM)) | B (a pKi value between 9 and 10 (Ki between 1 nM and 0.1 nM)) | – | – | – | – | B (a value of 2.3 to 3) | – | A (a pIC50 value≥7.5 (IC50≤32 nM))
16 | CN(C)C/C=C/C(=O)N1CCC(C)(Nc2cc(-c3ccc(O)cc3)cc3[nH]ncc23)CC1 [Compound 7-1] | – | E (a pKi value of 7 or below (Ki of 100 nM or above)) | B (a pKi value between 9 and 10 (Ki between 1 nM and 0.1 nM)) | – | – | – | – | A (a value of 3 or above) | – | C (a pIC50 value between 6 and 6.7 (IC50 between 1 μM and 200 nM))
17 | C=CC(=O)N1CCC[C@H](Oc2nc(-c3ccc(O)c(Cl)c3)cc3[nH]ncc23)C1 [Compound 8-10] | – | D (a pKi value between 7 and 8 (Ki between 100 nM and 10 nM)) | A (a pKi value≥10 (Ki≤0.1 nM)) | – | – | – | – | A (a value of 3 or above) | – | A (a pIC50 value≥7.5 (IC50≤32 nM))
18 | CN(C)C/C=C/C(=O)N1CCC(C)(Oc2cc(-c3ccc(O)cc3)cc3[nH]ncc23)CC1 [Compound 6-9] | – | – | – | – | 0.0316 to 0.2 µM | – | – | A (a value of 3 or above) | – | –
